Test results published in US5686486A, “4-hydroxy-benzopyran-2-ones and 4-hydroxy-cycloalkyl[b]pyran-2-ones useful to treat retroviral infections” (priority 1995, dated 1997).
Values joined by “and” are separate entries in the source; they are usually repeats but may differ in a detail not shown here. Identical values can stand only once. Counter-ions that a name gives are not always drawn. Like-named read-outs stand apart in the source and are kept apart here.

Biological target: HIV-1 protease (Human immunodeficiency virus type 1 group M subtype B, UniProt P04585)
Experiment: biochemical
Conditions: for inhibition at 1 µM: read-out: HIV-1 Protease % Inhib, dose 1.000 uM; for inhibition at 10 µM: read-out: HIV-1 Protease % Inhib, dose 10.000 uM; for inhibition at 100 µM: read-out: HIV-1 Protease % Inhib, dose 100.000 uM
Method: The HIV protease screening assay is based on fluorescently labeled substrate which can be resolved from nonlabeled cleavage product using special beads coated with streptavidin. The substrate is biotinylated at the amino terminal arginine and fluorescently labeled with fluorescein isothiocynate (FITC) at the carboxyl terminal lysine. This assay has been employed to detect novel, nonpeptidic inhibitors of HIV-1 protease. Substrate (20 μl of 0.2 μM), sample (10 μl of desired concentration), and enzyme (10 μl of 0.1 μM) are added to a 96 well pandex plate. The assay is run in 0.1M sodium acetate buffer at pH 5.5 in the presence of 1.0M sodium chloride and 0.05% NP-40 with incubated in the dark for one hour at room temperature. Strepavidin coated polystyrene beads {40 μl of 0.1% (w/v)} are added and the plate is incubated in the dark for an additional half hour. The labeled cleavage product is separated from the unreacted substrate via filtration and is read on the Idexx screen machine. The data are analyzed by appropriate computer algorithms to ascertain percent inhibition values.

Structure (SMILES) | IC50 (HIV-1 Protease IC50) | inhibition at 1 µM | inhibition at 10 µM | inhibition at 100 µM | further results
CCC(c1cccc(NC(=O)CCNC(=O)OC(C)(C)C)c1)c1c(O)c2ccc(OC)cc2oc1=O (stereo not drawn) [Example 58, Coumarin, 4-hydroxy-3-[1-[3-[[3-[(1,1-dimethylethoxycarbonyl)amino]-1-oxopropyl]amino]phenyl]propyl]-7-methoxy-] | 1200 nM | 36.3% | 90.2% | 108% | –
CCC(c1cccc(NC(=O)C2CCCN2C(=O)OC(C)(C)C)c1)c1c(O)c2ccccc2oc1=O (stereo not drawn) [Example 59, 1-Pyrrolidinecarboxylic acid, 2-[[[3-[1-(4-hydroxy-2-oxo-2H-1-benzopyran-3-yl)propyl]phenyl]amino]carbonyl]-, 1,1-dimethylethyl ester] | – | < 10% | 21.5% | 82.8% | –
CCC(c1cccc(NC(=O)C(C)NC(=O)OC(C)(C)C)c1)c1c(O)c2ccccc2oc1=O (stereo not drawn) [Example 60, Carbamic acid, [2-[[3-[1-(4-hydroxy-2-oxo-2H-1-benzopyran-3-yl)propyl]phenyl]amino]-1-methyl-2-oxoethyl]-, 1,1-dimethylethyl ester] | 1100 nM | 31.5% | 90.8% | 117% | –
CCC(c1cccc(NC(=O)C(C)N)c1)c1c(O)c2ccccc2oc1=O (stereo not drawn) [Example 61, Propanamide, 2-amino-N-[3-[1-(4-hydroxy-2-oxo-2H-1-benzopyran-3-yl)propyl]phenyl]-, mono(trifluoroacetate) (salt)] | 1000 nM | 77.8% | 115% | 119% | –
CCC(c1cccc(NC(=O)CCc2ccc(O)cc2)c1)c1c(O)c2ccccc2oc1=O (stereo not drawn) [Example 62, Coumarin, 4-hydroxy-3-[1-[3-[[3-(4-hydroxyphenyl)-1-oxopropyl]amino]phenyl]propyl]-] | – | < 10% | 10.6% | 78.3% | –
CCC(c1cccc(NC(=O)CCn2ccc3ccccc32)c1)c1c(O)c2ccccc2oc1=O (stereo not drawn) [Example 63, Coumarin, 4-hydroxy-3-[1-[3-[[3-(^1 H-indol-1-yl)-1-oxopropyl]amino]phenyl]propyl]-] | 2000 nM | 77.6% | 90.3% | 111% | –
CCC(c1cccc(NC(=O)CCc2cccc3ccccc23)c1)c1c(O)c2ccccc2oc1=O (stereo not drawn) [Example 64, Coumarin, 4-hydroxy-3-[1-[3-[[3-(1-naphthyl)-1-oxopropyl]amino]phenyl]propyl]-] | 5800 nM | 29.1% | 78.1% | 104% | –
CCC(c1cccc(NC(=O)CCSc2nc3ccccc3s2)c1)c1c(O)c2ccccc2oc1=O (stereo not drawn) [Example 65, Coumarin, 3-[1-[3-[[3-[(2-benzothiazolyl)thio]-1-oxopropyl]amino]phenyl]propyl]4-hydroxy-] | – | < 10% | 48.4% | 86.1% | –
CC(C)(C)OC(=O)CC(c1ccccc1)c1c(O)c2ccccc2oc1=O (stereo not drawn) [Example 66, 4-hydroxy-3-[α-tert-butyloxycarbonylmethyl]benzylcoumarin] | – | < 10% | < 10% | 52.6% | –
C=CCOc1cccc(C(CC)c2c(O)c3ccccc3oc2=O)c1 (stereo not drawn) [Example 67, 3-(1'-(3-Allyloxyphenyl)propyl)-4-hydroxycoumarin] | – | < 10% | 11.7% | 60.9% | –
CCC(c1cccc(OCC(O)CO)c1)c1c(O)c2ccccc2oc1=O (stereo not drawn) [Example 68, 3-(1'-(3-((2,3-Dihydroxy)propyloxy)phenyl)propyl)-4-hydroxycoumarin] | – | < 10% | < 10% | 56% | –
C=CCOc1ccccc1C(CC)c1c(O)c2ccccc2oc1=O (stereo not drawn) [Example 69, 3-(1'-(2-Allyloxyphenyl)propyl)-4-hydroxycoumarin] | – | < 10% | 20.6% | 92.2% | –
CCC(c1ccccc1OC)c1c(O)c2ccccc2oc1=O (stereo not drawn) [Example 70, 3-(1'-(2-Methoxyphenyl)propyl)-4-hydroxycoumarin] | – | < 10% | 10.2% | 72.2% | –
CCC(c1cccc(Br)c1)c1c(O)c2ccccc2oc1=O (stereo not drawn) [Example 71, 3-(1'-(3-Bromophenyl)propyl)-4-hydroxycoumarin] | – | < 10% | 15% | 80% | –
CCC(c1ccc(OC(C)=O)cc1)c1c(O)c2ccccc2oc1=O (stereo not drawn) [Example 72, 3-(1'-(4-Acetoxyphenyl)propyl)4-hydroxycoumarin] | – | < 10% | 18.9% | 92.3% | –
CCC(c1ccccc1OC(C)=O)c1c(O)c2ccccc2oc1=O (stereo not drawn) [Example 73, 3-(1'-(2-Acetoxyphenyl)propyl)-4-hydroxycoumarin] | – | < 10% | 29.9% | 96.7% | –

Structure (SMILES) | IC50 (HIV-1 Protease IC50) | inhibition at 1 µM | inhibition at 10 µM | inhibition at 100 µM | further results
C=CC(c1ccccc1)c1c(O)c2ccccc2oc1=O (stereo not drawn) [Example 74, 4-Hydroxy-3-(1-phenyl-2-propenyl)-coumarin] | – | < 10% | < 10% | 82.3% | –
O=c1oc2ccccc2c(O)c1C1CCCCc2ccccc21 (stereo not drawn) [Example 75, 4-Hydroxy-3-(5,6,7,8,9-tetrahydro-5H-benzocycloheptenyl)-coumarin] | 2400 nM | 14.5% | 72.7% | 96.6% | –
COc1ccc2c(c1)CCCC2c1c(O)c2ccccc2oc1=O (stereo not drawn) [Example 76, 4-Hydroxy-3-(1-(6-methoxy)-1,2,3,4-tetrahydronaphthyl)-coumarin] | – | < 10% | 47.8% | 96.5% | –
COc1ccc2c(c1)C(c1c(O)c3ccccc3oc1=O)CCC2 (stereo not drawn) [Example 77, 4-Hydroxy-3-(1-(7-methoxy)-1,2,3,4-tetrahydronaphthyl)-coumarin] | – | < 10% | 57.8% | 92.5% | –
C=CCOc1ccc2c(O)c(C(CC)c3ccccc3)c(=O)oc2c1 (stereo not drawn) [Example 78, Coumarin, 7-(allyloxy)-3-(α-ethylbenzyl)-4-hydroxy-] | 8400 nM | < 10% | 65.7% | 83.5% | –
CCC(c1cccc(NC(=O)CCc2c[nH]c3ccccc23)c1)c1c(O)c2ccccc2oc1=O (stereo not drawn) [Example 79, Coumarin, 3-[α-ethyl-[[[2-(indol-3-yl)ethyl]carbonyl]amino]benzyl]-4-hydroxy-] | – | < 10% | 61% | 80.9% | IC50 (read-out: HIV-1 Protease IC50): 13100 nM
COc1ccc2c(O)c(C(C3CC3)C3CC3)c(=O)oc2c1 [Example 80, Coumarin, 3-[bis(cyclopropyl)methyl]-4-hydroxy-7-methoxy-] | 8500 nM | < 10% | 62.6% | 102% | –
CCC(c1ccccc1)c1c(O)c2ccc(OC(C)C)cc2oc1=O (stereo not drawn) [Example 81, Coumarin, 3-(α-ethylbenzyl)-4-hydroxy-7-(1-methylethoxy)-] | 3700 nM | 62% | 75.6% | 85.3% | –
CCOc1ccc2c(O)c(C(CC)c3ccccc3)c(=O)oc2c1 (stereo not drawn) [Example 82, Coumarin, 7-ethoxy-3-(α-ethylbenzyl)-4-hydroxy-] | 900 nM | 30.9% | 69.7% | 89% | –
CCOC(=O)C(CC)c1c(O)c2ccccc2oc1=O (stereo not drawn) [Example 83, Butanoic acid, 2-(4-hydroxy-2-oxo-2H-1-benzopyran-3-yl)-, ethyl ester] | – | < 10% | < 10% | 50.1% | –
CCC(Cc1c(O)c2ccccc2oc1=O)c1ccccc1 (stereo not drawn) [Example 84, Coumarin, 4-hydroxy-3-(2-phenylbutyl)-] | – | < 10% | 30.2% | – | –
CCC(c1ccc(O)cc1)c1c(O)c2ccccc2oc1=O (stereo not drawn) [Example 85, Coumarin, 4-hydroxy-3-[1-(4-hydroxyphenyl)propyl]-] | – | < 10% | 31.6% | 100% | –
CCC(c1ccccc1)c1c(O)c2ccc(C(F)(F)F)cc2oc1=O (stereo not drawn) [Example 86, Coumarin, 7-trifluoromethyl-4-hydroxy-3-(1-phenylpropyl)-] | – | 10.5% | 56.9% | 95.8% | –
CCC(c1ccccc1)c1c(O)c2cc(F)ccc2oc1=O (stereo not drawn) [Example 87, Coumarin, 6-fluoro-4-hydroxy-3-(1-phenylpropyl)-] | – | < 10% | 20.6% | 79% | –
CCC(c1ccccc1)c1c(O)c2ccc(OC)cc2oc1=O (stereo not drawn) [Example 88, Coumarin, 4-hydroxy-7-methoxy-3-(. 1-phenylpropyl)-] | 1520 nM and 1600 nM and 2000 nM | 80% | 108% | – | HIV-1 Protease % Inhib (dose 12.500 uM): 80.8%; HIV-1 Protease % Inhib (dose 100.000 uM): 117.82% and 92% and 93.5%; inhibition at 1.56 µM (read-out: HIV-1 Protease % Inhib, dose 1.560 uM): 49.9%; inhibition at 1.57 µM (read-out: HIV-1 Protease % Inhib, dose 1.570 uM): 41.7%; inhibition at 12.5 µM (read-out: HIV-1 Protease % Inhib, dose 12.500 uM): 89.2%
